Tests used:
S. aureus DSM 20231 = assay: Bliss interaction score (quartile over a dose matrix) (fitness difference); higher = more antagonism (negative = synergy)
Outline: (§1)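 The Bliss score is observed minus expected fitness under the product model, reported as quartiles over technical, biological and donor/recipient replicates. Fitness is the OD595 at entry into stationary phase divided by the plate's robust no-drug mean and capped at 1. Single-drug fitness was inferred from combination data.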

S. pneumoniae D39V [1] = assay: as above
Outline: as §1

S. aureus Newman = assay: as above
Outline: as §1

B. subtilis 168 = assay: as above
Outline: as §1

S. pneumoniae D39V [2] = assay: fitness (endpoint OD595 vs no drug) (fraction); higher = more growth
Outline: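 Bacterial growth was followed in 384-well plates seeded at OD595 0.01, with 30 µl per well, or 55 µl for S. pneumoniae, in TSB, LB Lennox or CY at 37 °C. OD595 was read every 30 min for 14 h, and each reading had the first reading subtracted as background. Fitness is the background-corrected optical density at entry into stationary phase divided by the robust mean of the no-drug control wells. This ratio is capped at 1.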
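For Bliss interaction score (quartile over a dose matrix) in this document: first quartile when negative (synergy) and third quartile when positive (antagonism).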

CC[C@H]1OC(=O)[C@H](C)[C@@H](O[C@H]2C[C@@](C)(OC)[C@@H](O)[C@H](C)O2)[C@H](C)[C@@H](O[C@@H]2O[C@H](C)C[C@H](N(C)C)[C@H]2O)[C@](C)(OC)C[C@@H](C)C(=O)[C@H](C)[C@@H](O)[C@]1(C)O [Clarithromycin] + CN(N=O)C(=O)N[C@@H](C=O)[C@@H](O)[C@H](O)[C@H](O)CO [Streptozotocin]
Settings | Bliss interaction score
B. subtilis 168 | 0.0503
S. aureus DSM 20231 | 0.0361
S. aureus Newman | -0.0313
S. pneumoniae D39V [1] | 0.0525

fitness, S. pneumoniae D39V [2], one replicate
Settings | first compound 0.007812 µg/mL | first compound 0.01562 µg/mL | first compound 0.03125 µg/mL | first compound 0.0625 µg/mL | first compound 0.125 µg/mL | first compound 0.25 µg/mL
partner 1.2 µg/mL | 0.873 | 0.804 | 0.673 | 0.674 | 0.263 | 0.0915
partner 2.4 µg/mL | 0.877 | 0.815 | 0.672 | 0.713 | 0.32 | 0.134
partner 4.8 µg/mL | 0.87 | 0.802 | 0.661 | 0.537 | 0.0252 | 0

fitness, S. pneumoniae D39V [2]
Settings | first compound 0.07 µg/mL | first compound 0.14 µg/mL | first compound 0.28 µg/mL
partner 1.2 µg/mL | 0.115 | 0.0648 | 0.031
partner 2.4 µg/mL | 0.119 | 0.0981 | 0.0724
partner 4.8 µg/mL | 0.0916 | 0.0774 | 0.033

CCC[C@@H]1C[C@@H](C(=O)N[C@@H]([C@H]2O[C@H](SC)[C@H](O)[C@@H](O)[C@H]2O)[C@@H](C)O)N(C)C1 [Lincomycin] + CO[C@H]1/C=C/O[C@@]2(C)Oc3c(C)c(O)c4c(O)c(c(/C=N/N5CCN(C)CC5)c(O)c4c3C2=O)NC(=O)/C(C)=C\C=C\[C@H](C)[C@H](O)[C@@H](C)[C@@H](O)[C@@H](C)[C@H](OC(C)=O)[C@@H]1C [Rifampicin]
Settings | Bliss interaction score
B. subtilis 168 | -0.0988
S. aureus DSM 20231 | -0.0747
S. aureus Newman | 0.0333
S. pneumoniae D39V [1] | -0.136

fitness, S. pneumoniae D39V [2], one replicate
Settings | first compound 0.2 µg/mL | first compound 0.4 µg/mL | first compound 0.8 µg/mL
partner 0.025 µg/mL | 0.137 | 0.0822 | 0.0813
partner 0.2 µg/mL | 0 | 0 | 0

fitness, S. pneumoniae D39V [2]
Settings | first compound 0.2 µg/mL | first compound 0.215 µg/mL | first compound 0.4 µg/mL | first compound 0.43 µg/mL | first compound 0.8 µg/mL | first compound 0.86 µg/mL
partner 0.05 µg/mL | – | – | 0.0846 | – | 0.0947 | 0.185
partner 0.1 µg/mL | 0.076 | – | 0.0641 | – | 0.0864 | 0.147
partner 0.2 µg/mL | – | 0.26 | – | 0.221 | – | 0.131
